The record followed here is patent US20240166652A1, “MODULATORS OF THE INTEGRATED STRESS PATHWAY” (Calico Life Sciences LLC, priority 2017, published 2024).

pEC50: −log10 of the molar value.

The assay deals with ATF4 luciferase reporter in HEK293T cells. The assay is described as follows: ATF4-Luc assay (ATF4 luciferase reporter, tunicamycin-treated HEK293T cells). Particulars: Homo sapiens, HEK-293T; HEK293T cells carrying the ATF4 luciferase reporter, 1 μg/mL tunicamycin, 7 hours. The assay is classed as cell-based, human. On the technique in general: Reporter assays use an easily measured gene product as a stand-in for the process of interest.
Take `CN(C(=O)COc1ccc(Cl)c(Cl)c1)C12CC(NC(=O)COc3ccc(Cl)cc3)(C1)C2` [Compound 199, N-{3-[2-(4-chlorophenoxy)acetamido]bicyclo[1.1.1]pentan-1-yl}-2-(3,4-dichlorophenoxy)-N-methylacetamide]: the pEC50 was 6.60 to 7.30. Take `CN(CC(=O)NC12CC(NC(=O)COc3ccc(Cl)c(Cl)c3)(C1)C2)c1ccc(Cl)cc1` [Compound 200, N^2-(4-chlorophenyl)-N-{3-[2-(3,4-dichlorophenoxy)acetamido]-bicyclo[1.1.1]pentan-1-yl}-N^2-methylglycinamide]: the pEC50 was under 5.70. Under `CN(CC(=O)NC12CC(NC(=O)COc3ccc(Cl)c(F)c3)(C1)C2)c1ccc(Cl)cc1` [Compound 201, N-{3-[2-(4-chloro-3-fluorophenoxy)acetamido]bicyclo[1.1.1]pentan-1-yl}-N^2-(4-chlorophenyl)-N^2-methylglycinamide] stands 5.70 to 6.30. For `CN(CC(=O)NC12CCC(NC(=O)COc3ccc(Cl)c(Cl)c3)(C1)C2)c1ccc(Cl)cc1` [Compound 202, N^2-(4-chlorophenyl)-N-{4-[2-(3,4-dichlorophenoxy)acetamido]-bicyclo[2.1.1]hexan-1-yl}-N^2-methylglycinamide] the value was under 5.70; for `O=C(CNc1ccc(Cl)cc1)NC12CC(NC(=O)COc3ccc(Cl)c(F)c3)(C1)C2` [Compound 203, N-{3-[2-(4-chloro-3-fluorophenoxy)acetamido]bicyclo[1.1.1]pentan-1-yl}-N^2-(4-chlorophenyl)glycinamide], 6.60 to 7.30. Under `CN(CC(=O)NC12CC(NC(=O)COc3ccc(Cl)c(F)c3)(C1)C2)C(=O)c1ccc(Cl)cc1` [Compound 204, 4-chloro-N-[2-({3-[2-(4-chloro-3-fluorophenoxy)acetamido]-bicyclo[1.1.1]pentan-1-yl}amino)-2-oxoethyl]-N-methylbenzamide] stands 5.70 to 6.30; under `CC(=O)N(CC(=O)NC12CC(NC(=O)COc3ccc(Cl)c(F)c3)(C1)C2)c1ccc(Cl)cc1` [Compound 205, M-acetyl-N-{3-[2-(4-chloro-3-fluorophenoxy)acetamido]bicyclo-[1.1.1]pentan-1-yl}-N^2-(4-chlorophenyl)glycinamide], under 5.70; under `Cc1ccc(OCC(=O)NC23CC(NC(=O)COc4ccc(Cl)c(F)c4)(C2)C3)cn1` [Compound 206, 2-(4-chloro-3-fluorophenoxy)-N-(3-{2-[(6-methylpyridin-3-yl)oxy]acetamido}bicyclo[1.1.1]pentan-1-yl)acetamide], 6.60 to 7.30. As for `O=C(COCc1ccccc1)NC12CC(NC(=O)COc3ccc(Cl)c(F)c3)(C1)C2` [Compound 207, 2-(benzyloxy)-N-{3-[2-(4-chloro-3-fluorophenoxy)acetamido]-bicyclo[1.1.1]pentan-1-yl}acetamide], the pEC50 is 6.60 to 7.30.

Regarding `O=C(COCc1ccccc1)NC12CC(NC(=O)COc3ccc(Cl)cc3)(C1)C2` [Compound 208, 2-(benzyloxy)-N-{3-[2-(4-chlorophenoxy)acetamido]bicyclo[1.1.1]pentan-1-yl}acetamide], the pEC50 was 6.60 to 7.30. Under `O=C(COc1ccc(Cl)c(Cl)c1)NC12CCCC(NC(=O)COc3ccc(Cl)c(Cl)c3)(C1)C2` [Compound 209] stands under 5.70; under `Cc1ccc(CC(=O)NC23CC(NC(=O)COc4ccc(Cl)c(F)c4)(C2)C3)cn1` [Compound 210, 2-(4-chloro-3-fluorophenoxy)-N-{3-[2-(6-methylpyridin-3-yl)acetamido]bicyclo[1.1.1]pentan-1-yl}acetamide], under 5.70. Consider `O=C(COCc1ccc(C(=O)O)cc1)NC12CC(NC(=O)COc3ccc(Cl)c(F)c3)(C1)C2` [Compound 211], for which the pEC50 was under 5.70. For `O=C(COCc1cccc(C(=O)O)c1)NC12CC(NC(=O)COc3ccc(Cl)c(F)c3)(C1)C2` [Compound 212, 3-{[2-({3-[2-(4-chloro-3-fluorophenoxy)acetamido]bicyclo[1.1.1]pentan-1-yl}amino)-2-oxoethoxy]methyl}benzoic Acid] the value was under 5.70; for `O=C(COc1ccc(Cl)c(F)c1)NC12CC(NC(=O)COc3ccc(Cl)cn3)(C1)C2` [Compound 213, 2-(4-chloro-3-fluorophenoxy)-N-(3-{2-[(5-chloropyridin-2-yl)oxy]acetamido}bicyclo[1.1.1]pentan-1-yl)acetamide], 6.60 to 7.30. For `O=C(COc1ccc(Cl)c(F)c1)NC12CC(NC(=O)COc3ccc(C(F)(F)F)cn3)(C1)C2` [Compound 214, 2-(4-chloro-3-fluorophenoxy)-N-[3-(2-{[5-(trifluoromethyl)pyridin-2-yl]oxy}acetamido)bicyclo[1.1.1]pentan-1-yl]acetamide] the value was 6.60 to 7.30; for `N#Cc1ccc(OCC(=O)NC23CC(NC(=O)COc4ccc(Cl)c(F)c4)(C2)C3)nc1` [Compound 215, 2-(4-chloro-3-fluorophenoxy)-N-(3-{2-[(5-cyanopyridin-2-yl)oxy]acetamido}bicyclo[1.1.1]pentan-1-yl)acetamide], 6.60 to 7.30. Turning to `Cc1cc(OCC(=O)NC23CC(NC(=O)COc4ccc(Cl)c(F)c4)(C2)C3)ncc1Cl` [Compound 216, 2-(4-chloro-3-fluorophenoxy)-N-(3-{2-[(5-chloro-4-methylpyridin-2-yl)oxy]acetamido}bicyclo[1.1.1]pentan-1-yl)acetamide], the pEC50 is 6.60 to 7.30. For `O=C(COCc1n[nH]c(=O)o1)NC12CC(NC(=O)COc3ccc(Cl)c(F)c3)(C1)C2` [Compound 218, 2-(4-chloro-3-fluorophenoxy)-N-(3-{2-[(5-oxo-4,5-dihydro-1,3,4-oxadiazol-2-yl)methoxy]acetamido}bicyclo[1.1.1]pentan-1-yl)acetamide] the value was 5.70 to 6.30. For the molecule `O=C(COc1ccc(S(F)(F)(F)(F)F)cc1)NC12CC(NC(=O)COc3ccc(Cl)c(F)c3)(C1)C2` [Compound 219, 2-(4-chloro-3-fluorophenoxy)-N-(3-{2-[4-(pentafluoro-λ^6-sulfanyl)phenoxy]acetamido}bicyclo[1.1.1]pentan-1-yl)acetamide], the pEC50 was over 8.00.

Turning to `Cc1cc(OCC(=O)NC23CC(NC(=O)COc4ccc(Cl)c(F)c4)(C2)C3)cc(C)n1` [Compound 220, 2-(4-chloro-3-fluorophenoxy)-N-(3-{2-[(2,6-dimethylpyridin-4-yl)oxy]acetamido}bicyclo[1.1.1]pentan-1-yl)acetamide], the pEC50 was 5.70 to 6.30. Under `CC(C)(C)c1ccc(OCC(=O)NC23CC(NC(=O)COc4ccc(Cl)c(F)c4)(C2)C3)cn1` [Compound 221, 2-[(6-tert-butylpyridin-3-yl)oxy]-N-{3-[2-(4-chloro-3-fluorophenoxy)acetamido]bicyclo[1.1.1]pentan-1-yl}acetamide] stands 5.70 to 6.30. Consider `O=C(COc1ccc(Cl)c(F)c1)NC12CC(NC(=O)COc3cnc(C(F)(F)F)c(Cl)c3)(C1)C2` [Compound 222, 2-(4-chloro-3-fluorophenoxy)-N-[3-(2-{[5-chloro-6-(trifluoromethyl)pyridin-3-yl]oxy}acetamido)bicyclo[1.1.1]pentan-1-yl]acetamide], for which the pEC50 is over 8.00. Take `COC(=O)c1cc(OCC(=O)NC23CC(NC(=O)COc4ccc(Cl)c(F)c4)(C2)C3)ccc1Cl` [Compound 223, methyl 2-chloro-5-[2-({3-[2-(4-chloro-3-fluorophenoxy)acetamido]-bicyclo[1.1.1]pentan-1-yl}amino)-2-oxoethoxy]benzoate]: the pEC50 was 5.70 to 6.30.

`O=C(COc1ccc(Cl)c(F)c1)NC12CC(NC(=O)COc3ccc(Cl)c(CO)c3)(C1)C2` [Compound 224, 2-(4-chloro-3-fluorophenoxy)-N-(3-{2-[4-chloro-3-(hydroxymethyl)phenoxy]-acetamido}bicyclo[1.1.1]pentan-1-yl)acetamide]: the pEC50 is 6.60 to 7.30. As for `O=C(COc1ccc(Cl)nc1)NC12CC(NC(=O)COc3ccc(Cl)c(F)c3)(C1)C2` [Compound 225, 2-(4-chloro-3-fluorophenoxy)-N-(3-{2-[(6-chloropyridin-3-yl)oxy]acetamido}bicyclo[1.1.1]pentan-1-yl)acetamide], the pEC50 was 7.30 to 8.00.

`Cc1cc(OCC(=O)NC23CC(NC(=O)COc4ccc(Cl)c(F)c4)(C2)C3)cnc1Cl` [Compound 226, 2-(4-chloro-3-fluorophenoxy)-N-(3-{2-[(6-chloro-5-methylpyridin-3-yl)oxy]acetamido}bicyclo[1.1.1]pentan-1-yl)acetamide]: the pEC50 was 7.30 to 8.00.

Consider `O=C(COc1ccc(Cl)c(F)c1)NC12CC(NC(=O)COc3cnc(Cl)c(F)c3)(C1)C2` [Compound 227, 2-(4-chloro-3-fluorophenoxy)-N-(3-{2-[(6-chloro-5-fluoropyridin-3-yl)oxy]acetamido}bicyclo[1.1.1]pentan-1-yl)acetamide], for which the pEC50 was over 8.00. For `Nc1cc(OCC(=O)NC23CC(NC(=O)COc4ccc(Cl)c(F)c4)(C2)C3)ccc1Cl` [Compound 228, 2-(3-amino-4-chlorophenoxy)-N-{3-[2-(4-chloro-3-fluorophenoxy)acetamido]-bicyclo[1.1.1]pentan-1-yl}acetamide] the value was over 8.00; for `Cc1ccc(OCC(=O)NC23CC(NC(=O)COc4ccc(Cl)c(F)c4)(C2)C3)c(N)n1` [Compound 229, 2-[(2-amino-6-methylpyridin-3-yl)oxy]-N-{3-[2-(4-chloro-3-fluorophenoxy)acetamido]bicyclo[1.1.1]pentan-1-yl}acetamide], 5.70 to 6.30; for `O=C(COc1cncc(C(F)(F)F)c1)NC12CC(NC(=O)COc3ccc(Cl)c(F)c3)(C1)C2` [Compound 230, 2-(4-chloro-3-fluorophenoxy)-N-[3-(2-{[5-(trifluoromethyl)pyridin-3-yl]oxy}acetamido)bicyclo[1.1.1]pentan-1-yl]acetamide], 7.30 to 8.00. For `O=C(COc1ccc(Cl)c(F)c1)NC12CC(NC(=O)COc3cnc(Cl)c(C(=O)O)c3)(C1)C2` [Compound 231, 2-chloro-5-[2-({3-[2-(4-chloro-3-fluorophenoxy)acetamido]-bicyclo[1.1.1]pentan-1-yl}amino)-2-oxoethoxy]pyridine-3-carboxylic Acid] the value was under 5.70.

By pEC50 is commonly meant the negative decadic logarithm of the EC50, by convention in mol/L.
